The results in this text go back to BindingDB's records for doi:10.1016/j.bbrc.2004.06.020 (Chosun University, 2004).

The data set can be described thus: TP_TRANSPORTER: drug resistance (vincristine) in AML-2/D100 cells.

SMILES strings stand for the structures.

Turning to `COc1ccc(-c2cc(=O)c3c(OC)cc(OC)cc3o2)cc1` [TRIMETHYLAPIGENIN], the IC50 came out at 1.4 µM.

In the case of `COc1ccc(-c2oc3cc(O)ccc3c(=O)c2O)cc1OC`, the midpoint of inhibition, the IC50, lay at 6.3 µM.

For `COc1cc(-c2oc3cc(O)cc(O)c3c(=O)c2O)cc(OC)c1OC`, the half-inhibitory concentration (IC50) was 3.2 µM.

In turn, `COc1ccc(-c2cc(=O)c3c(OC)c(OC)c(OC)cc3o2)cc1OC` [2-(3,4-dimethoxyphenyl)-5,6,7-trimethoxy-4H-chromen-4-one] registered an IC50 of 3.2 µM.

Regarding `COc1ccc2oc(-c3ccc(OC)c(OC)c3)c(OC)c(=O)c2c1`, the IC50 amounted to 1.9 µM.

Take `COc1ccc2c(=O)cc(-c3ccc(OC)c(OC)c3)oc2c1`: the IC50 came out at 1.2 µM. This IC50 is about 1.6-fold lower than that of the compound before.

For `COc1ccc(-c2cc(=O)c3ccccc3o2)cc1OC`, the midpoint of inhibition, the IC50, lay at 1.2 µM.

For `COc1cc(-c2cc(=O)c3c(OC)c(OC)c(OC)cc3o2)cc(OC)c1OC`, half-maximal inhibition (IC50) was put at 0.9 µM.

With `O=c1cc(-c2ccc(O)c(O)c2)oc2cc(O)cc(O)c12` [2-(3,4-dihydroxyphenyl)-5,7-dihydroxy-4H-chromen-4-one], the midpoint of inhibition, the IC50, lay at 19.6 µM.

As to `COc1cc(OC)c2c(=O)cc(-c3cc(OC)c(OC)c(OC)c3)oc2c1`, inhibition was half-maximal at 0.4 µM (IC50). This IC50 is about 49-fold lower than that of the compound before.

A word on the IC50: it is the midpoint of a concentration-inhibition curve. Higher therefore signals weaker potency in that assay.
